We go through 25 molecules from patent US11028066B2, “Inhibitors of lysine specific demethylase-1” (CELGENE QUANTICEL RESEARCH, INC., priority 2014, dated 2021).

One assay addresses full-length human LSD1 (Homo sapiens (Human), UniProt O60341). In words: In vitro enzyme inhibition assay LSD-1 (TR-FRET). As to conditions: H3K4me1-biotin peptide. Type of assay: biochemical. On the procedure: This assay determines the ability of a test compound to inhibit LSD1 demethylase activity.
The enzymatic assay of LSD1 activity is based on Time Resolved-Fluorescence Resonance Energy Transfer (TR-FRET) detection.
Plates were read by EnVision Multilabel Reader in TR-FRET mode (excitation at 320 nm, emission at 615 nm and 665 nm) after 1 hour incubation at room temperature.
The ability of the compounds disclosed herein to inhibit LSD1 activity was quantified and the respective IC50 value was determined.
(In general: Time-resolved FRET reads energy transfer from a long-lived donor to a nearby acceptor.)

A further assay concerns THP-1 (AML) cells. In words: LSD1 CD11b cellular assay (flow cytometry). Type of assay: cell-based. As to conditions: Homo sapiens, THP-1, 96 h; CD11b expressing cells, 4 days incubation. On the procedure: To analyze LSD1 inhibitor efficacy in cells, a CD11b flow cytometry assay was performed. LSD1 inhibition induces CD11b expression in THP-1 (AML) cells which can be measured by flow cytometry. […] LSD1 test compounds were serially diluted in DMSO. The dilutions were added to each well accordingly to a final concentration of 0.2% DMSO. The cells were incubated at 37 degrees Celsius in 5% CO2 for 4 days. 250 μL of each well was transferred to a well in a 96 well round bottom plate. The plate was centrifuged at 1200 rpm at 4 degrees Celsius in a Beckman Coulter Alegra 6KR centrifuge for 5 minutes. The media was removed leaving the cells at the bottom of the wells. The cells were washed in 100 μL cold HBSS (Hank's Balanced Salt Solution) plus 2% BSA (Bovine Serum Albumin) solution and centrifuged at 1200 rpm at 4 degrees Celsius for 5 minutes. The wash was removed. […] The cells were centrifuged and washed two times in 100 μL HBSS plus 2% BSA. After the final spin the cells were resuspended in 100 μL HBSS plus 2% BSA containing 1 ug/mL DAPI (4′,6-diamidino-2-phenylindole). The cells were then analyzed by flow cytometry in a BD FACSAria machine. Cells were analyzed for CD11b expression. The percent of CD11b expressing cells for each inhibitor concentration was used to determine an IC50 curve for each compound analyzed.
For orientation: In flow cytometry, cells or beads pass a laser one at a time.

The IC50 is the concentration needed to halve the response being measured. A high value points to weaker potency. For the molecule `Cc1ccc(-c2c(-c3ccc(C#N)cc3)nc(N3CCC4(CCNC4)CC3)c(=O)n2C)cc1` [Example 24, 4-(6-{2,8-diazaspiro[4.5]decan-8-yl}-4-methyl-3-(4-methylphenyl)-5-oxo-4,5-dihydropyrazin-2-yl)benzonitrile], the IC50 against full-length human LSD1 and in the assay with THP-1 (AML) cells was below 100 nM each time.

Consider `CNC1CCN(c2cc(-c3ccc(C#N)cc3)c(-c3ccc(C)cc3)n(C)c2=O)CC1` [Example 80, 4-{1-methyl-5-[4-(methylamino)piperidyl]-2-(4-methylphenyl)-6-oxo-3-hydropyridyl}benzenecarbonitrile], for which the IC50 against full-length human LSD1 and in the assay on THP-1 (AML) cells was below 100 nM each time.

Regarding `N#Cc1ccc(-c2cn(CC3CCOC3)c(=O)c(N3CCC(N)CC3)n2)cc1F` (centres unmarked) [Example 14, 4-[6-(4-amino-piperidin-1-yl)-5-oxo-4-(tetrahydro-furan-3-ylmethyl)-4,5-dihydro-pyrazin-2-yl]-2-fluoro-benzonitrile], the IC50 against full-length human LSD1 is below 100 nM; in the assay on THP-1 (AML) cells it was 100 to 1000 nM.

For the molecule `Cn1c(-c2ccc(C3CC3)cc2)c(-c2ccc(C#N)cc2)nc(NC[C@H]2CCNC2)c1=O` [Example 34, 4-[3-(4-cyclopropylphenyl)-4-methyl-5-oxo-6-{[(3S)-pyrrolidin-3-ylmethyl]amino}-4,5-dihydropyrazin-2-yl]benzonitrile], the figures for the IC50 on full-length human LSD1 and in the assay on THP-1 (AML) cells were below 100 nM and 100 to 1000 nM, respectively.

On to `COc1ccc(-c2c(-c3ccc(C#N)c(F)c3)cc(N3CCC(N)CC3)c(=O)n2C)cc1` [Example 67, 4-(5-(4-aminopiperidin-1-yl)-2-(4-methoxyphenyl)-1-methyl-6-oxo-1,6-dihydropyridin-3-yl)-2-fluorobenzonitrile], for which the IC50 against full-length human LSD1 and in the assay on THP-1 (AML) cells was below 100 nM throughout.

With `COc1ccc(-c2c(-c3ccc(C#N)nc3)nc(NC[C@H]3CCNC3)c(=O)n2C)cc1` [Example 54, 5-{3-(4-methoxy-phenyl)-4-methyl-5-oxo-6-[((3S)-pyrrolidin-3-ylmethyl)-amino]-4,5-dihydro-pyrazin-2-yl}-pyridine-2-carbonitrile], the IC50 at full-length human LSD1 and in the assay with THP-1 (AML) cells was below 100 nM each time.

Consider `Cc1ccc(-c2c(-c3ccc(C#N)cc3)nc(N3CCC4CNCC4C3)c(=O)n2C)cc1` (centres unmarked) [Example 23, 4-[4-methyl-3-(4-methylphenyl)-6-{octahydro-1H-pyrrolo[3,4-c]pyridin-5-yl}-5-oxo-4,5-dihydropyrazin-2-yl]benzonitrile], for which the IC50 against full-length human LSD1 and in the assay on THP-1 (AML) cells was below 100 nM each time.

For the molecule `N#Cc1ccc(-c2cn(Cc3ccc(F)cc3)c(=O)c(N3CCC(N)CC3)n2)cc1` [Example 9, 4-[6-(4-aminopiperidin-1-yl)-4-[(4-fluorophenyl)methyl]-5-oxo-4,5-dihydropyrazin-2-yl]benzonitrile], the values for the IC50 against full-length human LSD1 and in the assay with THP-1 (AML) cells were below 100 nM and 100 to 1000 nM, respectively.

In the case of `COc1ccc(-c2c(-c3ccc(C#N)nc3)cc(N3CCC(N)CC3)c(=O)n2C)cc1` [Example 68, 5-(5-(4-aminopiperidin-1-yl)-2-(4-methoxyphenyl)-1-methyl-6-oxo-1,6-dihydropyridin-3-yl)picolinonitrile], the IC50 was below 100 nM against full-length human LSD1 and 100 to 1000 nM in the assay with THP-1 (AML) cells.

As for `N#Cc1ccc(-c2cn(Cc3cccc(F)c3)c(=O)c(N3CCC(N)CC3)n2)cc1` [Example 8, 4-[6-(4-aminopiperidin-1-yl)-4-[(3-fluorophenyl)methyl]-5-oxo-4,5-dihydropyrazin-2-yl]benzonitrile], the IC50 on full-length human LSD1 was below 100 nM; in the assay on THP-1 (AML) cells, 100 to 1000 nM.

As to `Cn1c(-c2ccc(C3CC3)cc2)c(-c2ccc(C#N)nc2)nc(N2CCC(N)CC2)c1=O` [Example 53, 5-[6-(4-amino-piperidin-1-yl)-3-(4-cyclopropyl-phenyl)-4-methyl-5-oxo-4,5-dihydro-pyrazin-2-yl]-pyridine-2-carbonitrile], the IC50 at full-length human LSD1 and with THP-1 (AML) cells was below 100 nM throughout.

In the case of `N#Cc1ccc(-c2cn(CC3CCOCC3)c(=O)c(N3CCC(N)CC3)n2)cc1F` [Example 15, 4-[6-(4-amino-piperidin-1-yl)-5-oxo-4-(tetrahydro-pyran-4-ylmethyl)-4,5-dihydro-pyrazin-2-yl]-2-fluoro-benzonitrile], the figures for the half-inhibitory concentration (IC50) at full-length human LSD1 and in the assay with THP-1 (AML) cells were below 100 nM and 100 to 1000 nM, respectively.

On to `CCn1c(-c2ccc(OC)cc2)c(-c2ccc(C#N)cc2)cc(N2CCC(N)CC2)c1=O` [Example 82, 4-[5-(4-aminopiperidin-1-yl)-1-ethyl-2-(4-methoxyphenyl)-6-oxopyridin-3-yl]benzonitrile], for which the IC50 against full-length human LSD1 and in the assay with THP-1 (AML) cells was below 100 nM throughout.

As to `Cc1ccc(-c2c(-c3ccc(C#N)cc3)nc(N3CCCC(N)C3)c(=O)n2C)cc1` (centres unmarked) [Example 22, 4-[6-(3-aminopiperidin-1-yl)-4-methyl-3-(4-methylphenyl)-5-oxo-4,5-dihydropyrazin-2-yl]benzonitrile], the IC50 against full-length human LSD1 and with THP-1 (AML) cells was below 100 nM in each case.

On to `Cc1ccc(-c2c(-c3ccc(C#N)cc3)nc(N3CCC(N)CC3)c(=O)n2C)cn1` [Example 49, 4-[6-(4-amino-piperidin-1-yl)-4-methyl-3-(6-methyl-pyridin-3-yl)-5-oxo-4,5-dihydro-pyrazin-2-yl]-benzonitrile], for which the half-inhibitory concentration (IC50) against full-length human LSD1 and in the assay on THP-1 (AML) cells was below 100 nM throughout.

With `COc1ccc(-c2c(-c3ccc(C#N)c(F)c3)nc(N3CCC(N)CC3)c(=O)n2CCC(N)=O)cc1` [Example 89, 3-[3-(4-aminopiperidyl)-5-(4-cyano-3-fluorophenyl)-6-(4-methoxyphenyl)-2-oxohydropyrazinyl]propanamide], the IC50 at full-length human LSD1 and with THP-1 (AML) cells was below 100 nM throughout.

As for `C[C@H](c1ccccc1)n1cc(-c2ccc(C#N)cc2)nc(N2CCC(N)CC2)c1=O` [Example 12, 4-[6-(4-aminopiperidin-1-yl)-5-oxo-4-[(1R)-1-phenylethyl]-4,5-dihydropyrazin-2-yl]benzonitrile], the IC50 is below 100 nM on full-length human LSD1 and 1000 to 10000 nM with THP-1 (AML) cells.

On to `COCCCn1c(-c2ccc(C)cc2)c(-c2ccc(C#N)c(F)c2)nc(N2CCC(N)CC2)c1=O` [Example 45, 4-[6-(4-aminopiperidyl)-4-(3-methoxypropyl)-3-(4-methylphenyl)-5-oxo(4-hydropyrazin-2-yl)]-2-fluorobenzenecarbonitrile], for which the IC50 against full-length human LSD1 and in the assay on THP-1 (AML) cells was below 100 nM throughout.

As to `CCc1ccc(-c2c(-c3ccc(C#N)cc3)nc(NC[C@@H]3CCNC3)c(=O)n2C)cc1` [Example 29, 4-[3-(4-ethylphenyl)-4-methyl-5-oxo-6-{[(3R)-pyrrolidin-3-ylmethyl]amino}-4,5-dihydropyrazin-2-yl]benzonitrile], the IC50 against full-length human LSD1 is below 100 nM; with THP-1 (AML) cells, 100 to 1000 nM.

In the case of `COc1ccc(Cn2cc(-c3ccc(C#N)cc3)nc(N3CCC(N)CC3)c2=O)cc1` [Example 11, 4-[6-(4-aminopiperidin-1-yl)-4-[(4-methoxyphenyl)methyl]-5-oxo-4,5-dihydropyrazin-2-yl]benzonitrile], the IC50 at full-length human LSD1 was below 100 nM; in the assay with THP-1 (AML) cells, 100 to 1000 nM.

With `N#Cc1ccc(-c2cn(Cc3ccccc3)c(=O)c(N3CCC(N)CC3)n2)cc1` [Example 1, 4-[6-(4-aminopiperidin-1-yl)-4-benzyl-5-oxo-4,5-dihydropyrazin-2-yl]benzonitrile], the IC50 on full-length human LSD1 is below 100 nM; with THP-1 (AML) cells, 100 to 1000 nM.

Take `Cc1ccc(-c2c(-c3ccc(C#N)cc3)nc(NC[C@H]3CCNC3)c(=O)n2C)cc1` [Example 17, 4-[4-methyl-3-(4-methylphenyl)-5-oxo-6-{[(3S)-pyrrolidin-3-ylmethyl]amino}-4,5-dihydropyrazin-2-yl]benzonitrile]: the IC50 against full-length human LSD1 and with THP-1 (AML) cells was below 100 nM each time.

On to `CNC1CCN(c2cc(-c3ccc(C#N)cc3)c(-c3ccc(N(C)C)nc3)n(C)c2=O)CC1` [Example 92, 4-{2-[6-(dimethylamino)(3-pyridyl)]-1-methyl-5-[4-(methylamino)piperidyl]-6-oxo-3-hydropyridyl}benzenecarbonitrile], for which the IC50 at full-length human LSD1 and in the assay with THP-1 (AML) cells was below 100 nM each time.

On to `Cc1ccc(-c2c(-c3ccc(C#N)cc3)nc(N3CCC4CNCC4CC3)c(=O)n2C)cc1` (centres unmarked) [Example 25, 4-(6-{decahydropyrrolo[3,4-d]azepin-6-yl}-4-methyl-3-(4-methylphenyl)-5-oxo-4,5-dihydropyrazin-2-yl)benzonitrile], for which the IC50 against full-length human LSD1 and in the assay with THP-1 (AML) cells was below 100 nM throughout.

Consider `CCc1ccc(-c2c(-c3ccc(C#N)nc3)nc(NC[C@H]3CCNC3)c(=O)n2C)cc1` [Example 56, 5-{3-(4-ethyl-phenyl)-4-methyl-5-oxo-6-[((3S)-pyrrolidin-3-ylmethyl)-amino]-4,5-dihydro-pyrazin-2-yl}-pyridine-2-carbonitrile], for which the IC50 against full-length human LSD1 and in the assay with THP-1 (AML) cells was below 100 nM each time.
